The text below walks through data of ChEMBL document CHEMBL1287717, “Design and synthesis of macrocyclic indoles targeting blood coagulation cascade Factor XIa” (Bioorg Med Chem Lett, 2010).

The source made the active and inactive calls. The rule behind the calls is not given here.

Experiment [1] deals with T1, Coagulation factor XI (Homo sapiens, UniProt P03951). Put plainly: Inhibition of factor 11a.
Experiment [2] has as its target T2, Prothrombin (Homo sapiens, UniProt P00734). Put plainly: Inhibition of factor 2a.
For another experiment, the target named is Trypsin (Homo sapiens, UniProt P07477+P07478+P35030). Put plainly: Inhibition of human trypsin. It counts as protein assay.
Experiment [3] deals with T3, Vitamin K-dependent protein C (Homo sapiens, UniProt P04070). Put plainly: Inhibition of activated protein C at 300 uM.
Experiment [4] has as its target T3, Vitamin K-dependent protein C. Put plainly: Inhibition of activated protein C.
In experiment [5] the target is T2, Prothrombin. Put plainly: Inhibition of factor 2a at 300 uM.
Experiment [6] has as its target T1, Coagulation factor XI. Put plainly: Inhibition of factor 11a at 300 uM.
Experiment [7] addresses Coagulation factor IX (Homo sapiens) (UniProt P00740). Put plainly: Inhibition of factor 9a at 300 uM.

T1 sequence (P03951 19-387 limits assumed): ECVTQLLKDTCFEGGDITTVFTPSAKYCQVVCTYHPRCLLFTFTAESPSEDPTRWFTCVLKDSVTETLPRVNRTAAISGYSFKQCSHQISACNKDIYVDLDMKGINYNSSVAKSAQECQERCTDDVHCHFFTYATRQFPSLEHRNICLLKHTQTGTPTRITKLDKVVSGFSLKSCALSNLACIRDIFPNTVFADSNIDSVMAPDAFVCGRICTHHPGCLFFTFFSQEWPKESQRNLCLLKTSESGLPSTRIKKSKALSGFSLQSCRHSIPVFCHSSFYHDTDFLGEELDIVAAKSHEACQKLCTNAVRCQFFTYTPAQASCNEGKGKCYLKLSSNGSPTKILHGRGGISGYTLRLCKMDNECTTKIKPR
T1 sequence (P03951 388-625 limits assumed): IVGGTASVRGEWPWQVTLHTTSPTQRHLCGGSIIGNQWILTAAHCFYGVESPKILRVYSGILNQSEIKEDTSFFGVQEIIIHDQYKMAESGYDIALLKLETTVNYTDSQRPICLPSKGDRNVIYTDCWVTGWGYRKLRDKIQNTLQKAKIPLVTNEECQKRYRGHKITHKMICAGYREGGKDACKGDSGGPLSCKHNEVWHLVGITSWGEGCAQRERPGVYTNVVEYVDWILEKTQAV
T3 sequence (P04070 43-197 limits assumed): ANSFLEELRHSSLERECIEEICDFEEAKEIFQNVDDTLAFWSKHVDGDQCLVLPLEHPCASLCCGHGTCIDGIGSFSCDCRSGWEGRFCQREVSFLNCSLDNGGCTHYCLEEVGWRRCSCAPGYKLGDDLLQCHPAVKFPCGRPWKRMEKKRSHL
T3 sequence (P04070 212-461 limits assumed): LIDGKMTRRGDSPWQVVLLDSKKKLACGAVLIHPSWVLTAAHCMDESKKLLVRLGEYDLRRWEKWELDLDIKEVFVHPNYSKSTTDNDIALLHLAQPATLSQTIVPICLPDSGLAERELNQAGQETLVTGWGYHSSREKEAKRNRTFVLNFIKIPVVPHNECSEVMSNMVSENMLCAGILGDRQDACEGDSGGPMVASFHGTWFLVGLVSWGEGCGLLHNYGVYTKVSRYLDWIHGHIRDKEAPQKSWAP
Chain of Coagulation factor IX (Homo sapiens) (P00740 47-191 limits assumed): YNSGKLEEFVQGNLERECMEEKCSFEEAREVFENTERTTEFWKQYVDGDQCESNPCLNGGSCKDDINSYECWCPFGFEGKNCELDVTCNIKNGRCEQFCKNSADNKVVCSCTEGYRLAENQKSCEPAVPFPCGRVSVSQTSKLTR
Chain of Coagulation factor IX (Homo sapiens) (P00740 227-461 limits assumed): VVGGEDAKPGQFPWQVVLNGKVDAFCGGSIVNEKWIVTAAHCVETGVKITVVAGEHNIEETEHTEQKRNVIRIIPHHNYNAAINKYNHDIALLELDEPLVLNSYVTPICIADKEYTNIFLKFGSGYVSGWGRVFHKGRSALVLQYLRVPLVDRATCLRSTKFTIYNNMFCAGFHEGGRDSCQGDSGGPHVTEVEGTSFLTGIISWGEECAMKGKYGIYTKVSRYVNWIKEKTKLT

In the case of `CC(C)C[C@@H]1NC(=O)[C@@H](C2CCCCC2)NS(=O)(=O)CC/C=C/Cc2[nH]c3ccc(Cl)cc3c2CNC1=O`, the figures for the IC50 against Coagulation factor XI [1], against Prothrombin [2] and against Trypsin were 768 µM, 67.9 µM and 2.69 µM, respectively. Also, the Kic came to 384 µM on Coagulation factor XI [1], 10.6 µM on Prothrombin [2] and 0.328 µM at Trypsin. Besides, the inhibition result in experiment [3] is “inactive”.
In turn, `O=C1Cn2c(Cl)cnc(c2=O)N[C@@H](Cc2ccccc2)CNCCCNCCc2ccc(Cl)cc2CN1` came in with a Ki on Prothrombin [2] of 0.09 nM.
Take `CC(C)C[C@@H]1NC(=O)[C@@H](C2CCCCC2)NC(=O)[C@H](c2ccccc2)C/C=C/Cc2[nH]c3ccc(Cl)cc3c2CNC1=O`: the 50% inhibitory concentration (IC50) in experiment [4] turned out to be 145 µM; against Coagulation factor XI [1] it was 136 µM; at Trypsin it was 0.26 µM. Moreover, the Kic was 116 µM in experiment [4] and 0.031 µM on Trypsin. The inhibition entry on Prothrombin [5] is “inactive”.
As for `C=CCc1[nH]c2ccc(Cl)cc2c1CNC(=O)[C@H](CC(C)C)NC(=O)[C@H](NC(=O)[C@@H](CC=C)c1ccccc1)C1CCCCC1`, the figures for the concentration for half-maximal inhibition (IC50) (in experiment [4]; against Coagulation factor XI [1]; at Trypsin) were 103 µM, 146 µM and 0.16 µM, respectively. The Kic came to 82.8 µM in experiment [4], 73 µM on Coagulation factor XI [1] and 0.02 µM on Trypsin. For the same compound, the inhibition result at Prothrombin [5] is “inactive”.
With `NC(N)=NCCC[C@@H]1NC(=O)[C@@H]2CCCN2C(=O)[C@@H](NC=O)CNC(=O)/C=C/[C@H](Cc2ccc(O)cc2)NC(=O)[C@@H](Cc2ccccc2)NC(=O)C1=O` [CYCLOTHEONAMIDE A], the IC50 on Prothrombin [2] was 0.0015 µM.
With `CCCCCC(=O)NCC(=O)N[C@H](C(=O)N[C@@H]1C(=O)N[C@@H](CCC(N)=O)C(=O)N[C@H]2CC[C@@H](O)N(C2=O)[C@@H](Cc2ccccc2)C(=O)N(C)[C@@H](Cc2c[nH]c3ccccc23)C(=O)N[C@@H](C(C)C)C(=O)O[C@@H]1C)[C@@H](C)O` [MICROPEPTIN 103], the concentration for half-maximal inhibition (IC50) against Prothrombin [2] turned out to be 8.7 µM.
Consider `CC(C)C[C@@H]1NC(=O)[C@@H](C2CCCCC2)NS(=O)(=O)CCCCCc2[nH]c3ccc(Cl)cc3c2CNC1=O`, for which the inhibition result (on Prothrombin [5]; in experiment [3]) was “inactive” in each case. Besides, the 50% inhibitory concentration (IC50) at Coagulation factor XI [1] was 176 µM; on Trypsin it was 2.43 µM. The Kic on Coagulation factor XI [1] amounted to 87.9 µM; at Trypsin it was 0.296 µM.
On to `C=CCCC(=O)N[C@@H](C(=O)N[C@@H](CC(C)C)C(=O)NCc1c(CC=C)[nH]c2ccc(Cl)cc12)C1CCCCC1`, for which the IC50 was found to be 284 µM in experiment [4], 103 µM against Coagulation factor XI [1] and 2.17 µM against Trypsin. Moreover, the Kic amounted to 227 µM in experiment [4], 51.6 µM at Coagulation factor XI [1] and 0.264 µM on Trypsin. For the same compound, the inhibition result on Prothrombin [5] is “inactive”.
As for `CC(C)C[C@@H]1NC(=O)[C@@H](C2CCCCC2)NC(=O)CCCCCc2[nH]c3ccc(Cl)cc3c2CNC1=O`, the results for the half-maximal inhibitory concentration (IC50) (in experiment [4]; against Prothrombin [2]; on Trypsin) were 395 µM, 10.6 µM and 10 µM, respectively. Further, the Kic in experiment [4] is 316 µM; on Prothrombin [2], 1.7 µM; at Trypsin it was 1.22 µM. Also, the inhibition result at Coagulation factor XI [6] was “inactive”.
With `C=CCCS(=O)(=O)N[C@@H](C(=O)N[C@@H](CC(C)C)C(=O)NCc1c(CC=C)[nH]c2ccc(Cl)cc12)C1CCCCC1`, the inhibition result (at Prothrombin [5]; in experiment [3]; on Coagulation factor XI [6]) was “inactive” each time. This compound returned an IC50 at Trypsin of 1.16 µM. At Trypsin, this compound came in with a Kic of 0.142 µM.
For the compound `CC(C)C[C@@H]1NC(=O)[C@@H](C2CCCCC2)NC(=O)[C@H](c2ccccc2)CCCCc2[nH]c3ccc(Cl)cc3c2CNC1=O`, the inhibition entry (at Prothrombin [5]; in experiment [3]; on Coagulation factor XI [6]) was “inactive” throughout. Further, the IC50 at Trypsin worked out at 2.31 µM. For the same compound, the Kic on Trypsin came to 0.281 µM.
On to `CC(C)C[C@@H]1NC(=O)[C@@H](C2CCCCC2)NC(=O)CC/C=C/Cc2[nH]c3ccc(Cl)cc3c2CNC1=O`, for which the inhibition entry in experiment [7] was “inactive”.
For the compound `CO[C@H](COS(=O)(=O)[O-])C(=O)N[C@@H](C(=O)N1[C@H](C(=O)NCCC2=CC[N+](=C(N)N)C2)C[C@@H]2C[C@H](O)[C@@H](O)C[C@@H]21)[C@H](Cl)C(C)C` [CHLORODYSINOSIN A], the IC50 at Prothrombin [2] was determined as 0.0057 µM.
